Source: patent publication US9296741B2, “Bromodomain inhibitors” (priority 2012, dated 2016)
pEC50, pKi: −log10 of the molar value.

Assays:
[1] = molecular target: human BRD4 first bromodomain (BDI_K57-E168) (Homo sapiens (Human), UniProt O60885); assay: TR-FRET bromodomain binding assay, BRD4 first bromodomain
[2] = molecular target: human BRD4 second bromodomain (BDII_E352-M457) (Homo sapiens (Human), UniProt O60885); assay: TR-FRET bromodomain binding assay, BRD4 second bromodomain
[3] = system: breast cancer cell line MX-1; assay: MX-1 cell line proliferation assay; type: cell-based, human; settings: Homo sapiens, MX1, 72 h; MX-1 cells, 3-day proliferation, Cell Titer Glo; read-out: Cellular proliferation: EC50
[4] = Human liver microsome stability assay; type: in vitro ADME; settings: both sexes, human, microsomes, pH 7.4
[5] = Rat liver microsome stability assay; type: in vitro ADME; settings: rat liver microsomes (male Sprague-Dawley), 0.5 μM test compound, pH 7.4, 37° C.; for half-life at 0.5 μM: 0.25 mg/mL microsomal protein, read-out: Stability in rat liver microsomes (t1/2 in minutes)
[6] = Mouse liver microsome stability assay; type: in vitro ADME; settings: male, CD1, mouse, microsomes, pH 7.4

pKi [1]	pKi [2]	pEC50 [3]	half-life at 0.5 μM [4] [min]	Stability in rat liver microsomes (t1/2 in minutes) ([5]; […] microsomal protein) [min]	half-life at 0.5 μM [6] [min]	half-life at 0.5 μM [5] [min]	Structure (SMILES)
8.82	8.96	7.34	34	1	70		CCNC(=O)c1cc2c(-c3cc(NS(C)(=O)=O)ccc3Oc3ccccc3)cn(C)c(=O)c2[nH]1 [Example 72, N-ethyl-6-methyl-4-{5-[(methylsulfonyl)amino]-2-phenoxyphenyl}-7-oxo-6,7-dihydro-1H-pyrrolo[2,3-c]pyridine-2-carboxamide]
9.01	9.30	7.68	36		31	2	Cn1cc(-c2cc(NS(C)(=O)=O)ccc2Oc2ccccc2)c2cc(C(N)=O)[nH]c2c1=O [Example 73, 6-methyl-4-{5-[(methylsulfonyl)amino]-2-phenoxyphenyl}-7-oxo-6,7-dihydro-1H-pyrrolo[2,3-c]pyridine-2-carboxamide]
6.28	6.74	6.12	19		2	2	Cn1nc(-c2ccccc2Oc2ccccc2)c2cc[nH]c2c1=O [Example 82, 6-methyl-4-(2-phenoxyphenyl)-1,6-dihydro-7H-pyrrolo[2,3-d]pyridazin-7-one]
7.91	7.06	6.62	17		7	7	Cn1cc(-c2cc(NS(=O)(=O)CCF)ccc2OC2CCOC2)c2cc[nH]c2c1=O (stereo not drawn) [Example 91, 2-fluoro-N-[3-(6-methyl-7-oxo-6,7-dihydro-1H-pyrrolo[2,3-c]pyridin-4-yl)-4-(tetrahydrofuran-3-yloxy)phenyl]ethanesulfonamide]
8.12	7.49	6.92	54		25	102	CCCS(=O)(=O)Nc1ccc(Oc2ccc(C#N)cc2)c(-c2cn(C)c(=O)c3[nH]ccc23)c1 [Example 93, N-[4-(4-cyanophenoxy)-3-(6-methyl-7-oxo-6,7-dihydro-1H-pyrrolo[2,3-c]pyridin-4-yl)phenyl]propane-1-sulfonamide]
7.79	8.00	6.96	47		25	28	CCCS(=O)(=O)Nc1ccc(Oc2c(F)cc(F)cc2F)c(-c2cn(C)c(=O)c3[nH]ccc23)c1 [Example 94, N-[3-(6-methyl-7-oxo-6,7-dihydro-1H-pyrrolo[2,3-c]pyridin-4-yl)-4-(2,4,6-trifluorophenoxy)phenyl]propane-1-sulfonamide]
8.06	8.96	7.25	> 120		36	7	Cn1cc(-c2cc(S(N)(=O)=O)ccc2Oc2ccccc2)c2cc[nH]c2c1=O [Example 95, 3-(6-methyl-7-oxo-6,7-dihydro-1H-pyrrolo[2,3-c]pyridin-4-yl)-4-phenoxybenzenesulfonamide]
9.20	8.96	7.80	24		33	13	Cn1cc(-c2cc(S(N)(=O)=O)cnc2NC2CCCCC2)c2cc[nH]c2c1=O [Example 96, 6-(cyclohexylamino)-5-(6-methyl-7-oxo-6,7-dihydro-1H-pyrrolo[2,3-c]pyridin-4-yl)pyridine-3-sulfonamide]
8.19	8.57	7.28	26		10	33	CNS(=O)(=O)Nc1ccc(Oc2c(F)cc(F)cc2F)c(-c2cn(C)c(=O)c3[nH]ccc23)c1 [Example 98, N-methyl-N′-[3-(6-methyl-7-oxo-6,7-dihydro-1H-pyrrolo[2,3-c]pyridin-4-yl)-4-(2,4,6-trifluorophenoxy)phenyl]sulfuric diamide]
8.46	7.61	7.01	> 120		35	22	CCCS(=O)(=O)Nc1ccc(OC2CCOCC2)c(-c2cn(C)c(=O)c3[nH]ccc23)c1 [Example 99, N-[3-(6-methyl-7-oxo-6,7-dihydro-1H-pyrrolo[2,3-c]pyridin-4-yl)-4-(tetrahydro-2H-pyran-4-yloxy)phenyl]propane-1-sulfonamide]
8.92	8.37	7.95	92		20	12	CCS(=O)(=O)Nc1ccc(OC2CCC(F)(F)CC2)c(-c2cn(C)c(=O)c3[nH]ccc23)c1 [Example 101, N-{4-[(4,4-difluorocyclohexyl)oxy]-3-(6-methyl-7-oxo-6,7-dihydro-1H-pyrrolo[2,3-c]pyridin-4-yl)phenyl}ethanesulfonamide]
8.36	7.75	7.19	27		7	8	CNS(=O)(=O)Nc1ccc(OC2CCC(F)(F)CC2)c(-c2cn(C)c(=O)c3[nH]ccc23)c1 [Example 104, N-{4-[(4,4-difluorocyclohexyl)oxy]-3-(6-methyl-7-oxo-6,7-dihydro-1H-pyrrolo[2,3-c]pyridin-4-yl)phenyl}-N′-methylsulfuric diamide]
9.28	8.82	7.80	> 120		7	13	CCS(=O)(=O)Nc1ccc(OC2CCCOC2)c(-c2cn(C)c(=O)c3[nH]ccc23)c1 (stereo not drawn) [Example 105, N-[3-(6-methyl-7-oxo-6,7-dihydro-1H-pyrrolo[2,3-c]pyridin-4-yl)-4-(tetrahydro-2H-pyran-3-yloxy)phenyl]ethanesulfonamide]
8.85	8.28	7.42	37		13	33	CNS(=O)(=O)Nc1ccc(OC2CCCOC2)c(-c2cn(C)c(=O)c3[nH]ccc23)c1 (stereo not drawn) [Example 108, N-methyl-N′-[3-(6-methyl-7-oxo-6,7-dihydro-1H-pyrrolo[2,3-c]pyridin-4-yl)-4-(tetrahydro-2H-pyran-3-yloxy)phenyl]sulfuric diamide]
9.14	8.47	7.49	71		> 120	61	CCS(=O)(=O)Nc1ccc(OC2CCOCC2)c(-c2cn(C)c(=O)c3[nH]ccc23)c1 [Example 109, N-[3-(6-methyl-7-oxo-6,7-dihydro-1H-pyrrolo[2,3-c]pyridin-4-yl)-4-(tetrahydro-2H-pyran-4-yloxy)phenyl]ethanesulfonamide]
8.06	7.99	6.70	> 120		63	42	Cn1cc(-c2cc(S(N)(=O)=O)cnc2Nc2ccccc2)c2cc[nH]c2c1=O [Example 111, 5-(6-methyl-7-oxo-6,7-dihydro-1H-pyrrolo[2,3-c]pyridin-4-yl)-6-(phenylamino)pyridine-3-sulfonamide]
6.87	6.92	< 5.52	13		8	5	Cn1cc(-c2cc(NS(=O)(=O)CCF)ccc2Oc2c(F)cc(F)cc2F)c2cc[nH]c2c1=O [Example 114, 2-fluoro-N-[3-(6-methyl-7-oxo-6,7-dihydro-1H-pyrrolo[2,3-c]pyridin-4-yl)-4-(2,4,6-trifluorophenoxy)phenyl]ethanesulfonamide]
7.17	7.57	7.26	41		55	38	CCCS(=O)(=O)Nc1ccc(Oc2ccc(F)cc2F)c(-c2cn(C)c(=O)c3[nH]ccc23)c1 [Example 115, N-[4-(2,4-difluorophenoxy)-3-(6-methyl-7-oxo-6,7-dihydro-1H-pyrrolo[2,3-c]pyridin-4-yl)phenyl]propane-1-sulfonamide]
7.81	7.48	6.60	21		24	25	Cn1cc(-c2cc(C(=O)NCc3ccncc3)ccc2Oc2ccc(F)cc2F)c2cc[nH]c2c1=O [Example 121, 4-(2,4-difluorophenoxy)-3-(6-methyl-7-oxo-6,7-dihydro-1H-pyrrolo[2,3-c]pyridin-4-yl)-N-(pyridin-4-ylmethyl)benzamide]
7.57	7.44	6.93	> 120		45	> 120	Cn1cc(-c2cc(C(=O)NCC(C)(C)O)ccc2Oc2ccc(F)cc2F)c2cc[nH]c2c1=O [Example 123, 4-(2,4-difluorophenoxy)-N-(2-hydroxy-2-methylpropyl)-3-(6-methyl-7-oxo-6,7-dihydro-1H-pyrrolo[2,3-c]pyridin-4-yl)benzamide]
7.42	7.34	6.93	54		12	38	Cn1cc(-c2cc(C(=O)NCc3ccccn3)ccc2Oc2ccc(F)cc2F)c2cc[nH]c2c1=O [Example 129, 4-(2,4-difluorophenoxy)-3-(6-methyl-7-oxo-6,7-dihydro-1H-pyrrolo[2,3-c]pyridin-4-yl)-N-(pyridin-2-ylmethyl)benzamide]
